This note sets out measurements from patent publication US20200316089A1, “1,2-DIHYDRO-3H-PYRAZOL-3-ONE COMPOUNDS AND METHODS OF USING SAME” (Frequency Therapeutics, Inc., priority 2017, published 2020).

In test [1] the test system is Lgr5-positive cochlear cells. The test can be described thus: Expansion of Lgr5-positive cells (cochlear stem cell expansion, Lgr5-GFP flow cytometry). Type of test: cell-based. The following applies: 240 h; Lgr5-GFP mouse cochlear cells, 10 days in culture; read-out: Potency (Lgr5-positive cell expansion). The method, then:
Lgr5-EGFP-IRES-Cre-ER mice (Barker et al., 2007) (http://jaxmice.jax.org/strain/008875.html) are used to analyze the effects of small molecules on cochlear stem cell expansion.
Isolation of stem cells from the inner ear: All animal studies are conducted under an approved institutional protocol according to National Institutes of Health guidelines. For experiments with neonatal mice (postnatal days 1-3), the cochleae are dissected in HBSS and the organ of Corti are separated from the stria vascularis and the modiolus. The organs of Corti are then treated with Cell Recovery Solution (Corning) for 1 h to separate cochlear epithelium from the underlying mesenchyme. Epithelia are then collected and treated with TrypLE (Life Technologies) for 15-20 minutes at 37° C. Single cells obtained by mechanical trituration are filtered (40 μm) and suspended in Matrigel (Corning) for 3D culture. […]
Lgr5-positive cells are quantified after 10 days (D10) in culture in multiple conditions. […] The cells are then stained with propidium iodide (PI) and are analyzed using a flow cytometer for Lgr5-GFP expression. The number of GFP-positive cells and the percentage of GFP-positive cells are quantified.
On the technique in general: In flow cytometry, cells or beads pass a laser one at a time.

For test [2], the target named is recombinant human GSK3β (Homo sapiens, UniProt P49841). The test can be described thus: in vitro enzymatic assay (Kinase-Glo Max) for inhibition of GSK3β. It counts as biochemical. The following applies: 10 uM ATP. The method, then: (§1) Enzymatic activities of compounds of the present disclosure are tested with recombinant human GSK3 using an in vitro enzymatic assay for inhibition GSK3α and GSK3β.
Sequence of recombinant human GSK3β (P49841 whole entry): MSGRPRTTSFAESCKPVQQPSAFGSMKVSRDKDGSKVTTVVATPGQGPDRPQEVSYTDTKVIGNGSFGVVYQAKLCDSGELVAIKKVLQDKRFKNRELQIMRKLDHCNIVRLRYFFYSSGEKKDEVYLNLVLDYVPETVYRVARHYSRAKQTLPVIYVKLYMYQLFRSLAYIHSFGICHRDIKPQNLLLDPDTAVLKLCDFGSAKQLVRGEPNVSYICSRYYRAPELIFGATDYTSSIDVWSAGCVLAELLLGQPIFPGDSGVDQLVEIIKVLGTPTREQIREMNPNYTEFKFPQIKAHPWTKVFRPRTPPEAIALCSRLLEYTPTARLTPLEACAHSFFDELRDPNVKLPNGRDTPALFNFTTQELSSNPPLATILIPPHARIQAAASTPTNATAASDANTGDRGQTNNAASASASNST
(§2) The assay was performed using Kinase-Glo Max luminescence kinase assay kit (Promega). It measures kinase activity by quantitating the amount of ATP remaining in solution following a kinase reaction. The luminescent signal from the assay is correlated with the amount of ATP present and is inversely correlated with the amount of kinase activity. The compounds were diluted in 10% DMSO) and 5 μl of the dilution was added to a 50 μl reaction so that the final concentration of DMSO is 1% in all of reactions. The enzymatic reactions were conducted at 30° C. for 40 minutes. […] After the enzymatic reaction, 50 μl of Kinase-Glo Max Luminescence kinase assay solution (Promega) was added to each reaction and incubate the plate for 15 minutes at room temperature. Luminescence signal was measured using a BioTek Synergy 2 microplate reader.
(§3) Kinase activity assays were performed in duplicate at each concentration. The luminescence data were analyzed using the computer software, Graphpad Prism. The difference between luminescence intensities in the absence of Kinase (Lut) and in the presence of Kinase (Luc) was defined as 100% activity (Lut−Luc). […]
For orientation: Kinase-Glo measures the ATP left after a reaction by luminescence.

For test [3], the target named is recombinant human GSK3α (Homo sapiens, UniProt P49840). The experiment in a line: in vitro enzymatic assay (Kinase-Glo Max) for inhibition of GSK3α. It counts as biochemical. The following applies: 10 uM ATP, 0.1 mg/ml GSKtide, 30° C. 40 minutes; read-out: Potency GSK-3alpha. The method, then: as §1, §2, §3
Sequence of recombinant human GSK3α (P49840 whole entry): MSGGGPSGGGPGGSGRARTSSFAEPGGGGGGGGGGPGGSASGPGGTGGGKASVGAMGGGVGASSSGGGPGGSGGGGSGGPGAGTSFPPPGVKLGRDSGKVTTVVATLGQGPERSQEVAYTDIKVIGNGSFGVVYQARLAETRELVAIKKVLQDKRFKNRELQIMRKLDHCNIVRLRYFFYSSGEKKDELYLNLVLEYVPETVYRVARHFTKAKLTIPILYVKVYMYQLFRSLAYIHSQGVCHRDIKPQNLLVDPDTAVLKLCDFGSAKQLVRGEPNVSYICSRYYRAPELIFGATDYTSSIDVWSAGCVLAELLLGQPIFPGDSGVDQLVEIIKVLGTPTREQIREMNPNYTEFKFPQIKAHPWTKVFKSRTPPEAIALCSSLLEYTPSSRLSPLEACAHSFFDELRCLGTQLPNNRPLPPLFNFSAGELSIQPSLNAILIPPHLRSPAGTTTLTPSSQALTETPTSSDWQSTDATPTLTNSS

Molecules are shown by their SMILES.

For the compound `O=C(N1CCCCC1)N1CCn2cc(-c3[nH][nH]c(=O)c3-c3cnc4ccccn34)c3cc(F)cc(c32)C1` [Compound I-4], in test [1], the EC50 is over 10 µM. Besides, the IC50 came to 0.706 µM in test [2] (0.1 mg/ml GSKtide, 30° C. 40 minutes, read-out: Potency GSK-3beta) and 0.348 µM in test [3].
Usually inhibition stands for the percentage by which the read-out fell short of the control. Take `O=C(N1CCCCC1)N1CCn2cc(-c3c(-c4cnc5ccccn45)[nH][nH]c3=O)c3cc(F)cc(c32)C1` [Compound I-52]: the EC50 in test [1] is over 10 µM. In addition, the inhibition at 10 µM in test [2] (at 10 uM compound, read-out: Potency GSK-3beta: % inhibition) is 34%. For the same compound, in test [3], the IC50 worked out at 10 µM.
